From patent US20260102407A1, “TREATMENT METHODS” (priority 2020, published 2026)

Experiment: BT2 formulation analysis by RRLC-MS/MS and LC/MS (stability)
Format: physicochemical
Details: for discrepancy in BT2 content: 6 weeks storage at 22° C.
Protocol: BT2 formulation analysis using RRLC-MS/MS. A rapid resolution liquid chromatography/tandem mass spectrometry (RRLC-MS/MS) method was developed under GLP by Iris Pharma using an Agilent 1200 Triple Quad G6410B to determine BT2 content in heat-treated or non-heat treated BT2 formulations at 1 week (T1 week) or 6 weeks (T6 weeks) after preparation at room temperature. The formulations were heat (H)-treated (tubes placed in a 100° C. water bath for 10 min) or non-heat treated sonicated formulations of BT2 in saline containing 0.5% Tween 80 and 0.01% DMSO). Standard curves were constructed with 8 concentrations between the lower limit of quantification (LLOQ) and the upper limit of quantification (ULOQ). Evaluations were performed on 3 preparations at the same dilution. Chromatograms were integrated using MassHunter software. For BT2 content analysis (T1 week and T6 weeks), calculation of mean, SD, CV (%) and bias (%) were performed as follows: For T1, the theoretical concentration (i.e. the weighed/formulated material supplied) was used as reference to calculate the bias (%) of each preparation containing the test sample:
Standard curves were fitted using Excel® version 2011. For each run, bias on back-calculated concentration of the standard curve and QC was determined, with back-calculated concentrations of the calibration standards being set within ±15% of the theoretical value, except for the LLOQ for which it was set within ±20%. At least 75% of the calibration standards, with a minimum of six, must have had to fulfil this criterion and the coefficient of determination (r^2) was set at ≥0.98.
BT2 formulation analysis using liquid chromatography mass spectrometry (LC/MS). DMSO (100 μl) and samples (˜50 μl) were combined along with formic acid (1 μl). These solutions (10 μl) were further diluted with H2O:CH3CN (1:1) 0.1% formic acid (90 μl) for LC/MS analysis. Samples were separated by UPLC using an HPG-3400RS UPLC pump, autosampler and column compartment system (Thermo Scientific, CA). Samples (0.1 μl) were loaded onto a Hypersil Gold aQ column (2.1×50 mm) containing 1.9μ media (Thermo Scientific). Compounds were eluted using a linear gradient of H2O:CH3CN with A containing H2O (0.1% formic acid) and B containing H2O:CH3CN (1:4, 0.1% formic acid). The gradient was: T=0 min 2% B, T=20 min 75% B, T=23 min 95% B, T=25 min, 95% B, T=25.2 min 2% B, T=30 min, 2% at 200 μl/min over 30 min. The column oven was heated to 45° C. Positive ions were generated by electrospray and the QExactive Plus mass spectrometer (Thermo Fisher, Bremen, Germany) operated in data dependent acquisition mode (DDA). The heated electrospray source (HESI) was used with a high voltage 3.8 kV applied; a vaporizer temp of 250° C.; sheath gas 20; aux gas 5 and the heated capillary set to T=290° C. […]

CCOC(=O)Nc1ccc2c(c1)C(=O)N(CC)c1ccccc1O2 [BT2, (10-ethyl-11-oxo-10,11-dihydro-dibenzo[b,f][1,4]oxazepin-2-yl)-carbamic acid ethyl ester]
stability of formulation after autoclaving (autoclaved (121° C., 15 psi, 20 min), 4 months storage at 22° C., LC/MS): remained stable
discrepancy in BT2 content (heat-treated formulation (100° C. for 10 min), RRLC-MS/MS): 1%
degradation of stored formulation (heat-treated or not, storage up to 16 months, RRLC-MS/MS): no loss in biological efficacy or degradation
discrepancy in BT2 content (non-heat treated formulation, RRLC-MS/MS): 0.2%
